Assay results reported in ChEMBL document CHEMBL1136096, “Design and biological evaluation of novel antioxidants containing N-t-Butyl-N-hydroxylaminophenyl moieties” (Bioorg Med Chem Lett, 2003).

How the values were obtained:
Format in all cases: functional
Gerbillinae [1] = assay: In vitro inhibitory activity against lipid peroxidation in gerbils
Gerbillinae [2] = assay: In vivo neuroprotective activity in gerbils (neuronal cell survival) before ischemic injury
Gerbillinae [3] = assay: In vivo neuroprotective activity in gerbils (neuronal cell survival) after ischemic injury

| Compound | IC50 (Gerbillinae [1]) | Cell Survival (Gerbillinae [2]) | Cell Survival (Gerbillinae [3]) |
| --- | --- | --- | --- |
| CC(C)(C)N(O)c1ccc(C(=O)NCc2ccccn2)cc1 | 11.1 µM | – | – |
| CC(C)(C)N(O)c1ccc(C(=O)Nc2nccs2)cc1 | 1.44 µM | 57% | 81% |
| CC(C)(C)N(O)c1ccc(C(=O)Nc2ccccn2)cc1 | 4.3 µM | – | – |
| O=c1c2ccccc2[se]n1-c1ccccc1 [EBSELEN] | 68.9 µM | 58% | 58% |
